Among the test systems are KM12 colon; SF-539 CNS; IGROV1 ovarian; HOP-92 NSCLC; CCRF-CEM leukemia; M14 melanoma; UO-31 renal; HCC-2998 colon; CAKI-1 renal; SK-OV-3 ovarian; OVCAR-4 ovarian; RPMI-8226 leukemia; HL-60(TB) leukemia; OVCAR-5 ovarian; SF-295 CNS; HCT-15 colon; SK-MEL-5 melanoma; HT29 colon; MOLT-4 leukemia; DMS 114 small cell lung.
Holding throughout (assay): NCI tumour cell line growth inhibition, 48 h

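Each compound was tested at five concentrations against cells in 96-well plates for 48 hours. TGI is the concentration that stops growth completely.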

Turning to `NC(CCOCCP(=O)(O)CCOCCC(N)C(=O)O)C(=O)O` (stereo not drawn), the TGI in the test with KM12 colon, in the test on SF-539 CNS, with IGROV1 ovarian, in the test on HOP-92 NSCLC, with CCRF-CEM leukemia and in the test on M14 melanoma was more than 100 µM throughout. Further, the TGI in the test with UO-31 renal, in the test with HCC-2998 colon, in the test with CAKI-1 renal, with SK-OV-3 ovarian, with OVCAR-4 ovarian and in the test with RPMI-8226 leukemia was more than 100 µM each time. The TGI in the test with HL-60(TB) leukemia, in the test with OVCAR-5 ovarian, in the test with SF-295 CNS, in the test with HCT-15 colon, in the test on SK-MEL-5 melanoma and in the test on HT29 colon was more than 100 µM in each case. In the test with MOLT-4 leukemia, the TGI is more than 100 µM.
On to `O=C1OCc2cccc3c2-c2c1cccc2C(=O)OC3`, for which the TGI was more than 100 µM with DMS 114 small cell lung; more than 100 µM in the test on KM12 colon; more than 100 µM with SF-539 CNS; more than 100 µM in the test on IGROV1 ovarian; 92.2 µM in the test with HOP-92 NSCLC; more than 100 µM with M14 melanoma. The TGI in the test on UO-31 renal, in the test with HCC-2998 colon, with CAKI-1 renal, in the test with SK-OV-3 ovarian, with OVCAR-4 ovarian and with RPMI-8226 leukemia was more than 100 µM in each case. In addition, the TGI in the test on HL-60(TB) leukemia, in the test on SF-295 CNS, in the test with HCT-15 colon, in the test on SK-MEL-5 melanoma, in the test on HT29 colon and with MOLT-4 leukemia was more than 100 µM in each case.
On to `c1ccc(-c2nnc(-c3nsc4ccccc34)o2)cc1`, for which the TGI with DMS 114 small cell lung, with KM12 colon, in the test on SF-539 CNS, in the test on IGROV1 ovarian, in the test with HOP-92 NSCLC and in the test on CCRF-CEM leukemia was more than 100 µM each time. Moreover, the TGI with M14 melanoma, in the test on UO-31 renal, with HCC-2998 colon, in the test with OVCAR-4 ovarian, in the test on RPMI-8226 leukemia and with HL-60(TB) leukemia was more than 100 µM in each case. Also, the TGI with OVCAR-5 ovarian, with HCT-15 colon, with SK-MEL-5 melanoma, in the test on HT29 colon and in the test with MOLT-4 leukemia was more than 100 µM throughout.
For the compound `O=C(O)C12CCCC(CCC1)C2`, the TGI in the test on DMS 114 small cell lung, with KM12 colon, with SF-539 CNS, with IGROV1 ovarian, in the test with HOP-92 NSCLC and in the test on CCRF-CEM leukemia was more than 100 µM in each case. Also, the TGI with M14 melanoma, in the test on UO-31 renal, with CAKI-1 renal, with SK-OV-3 ovarian, with OVCAR-4 ovarian and with RPMI-8226 leukemia was more than 100 µM throughout. In addition, the TGI in the test on HL-60(TB) leukemia, with OVCAR-5 ovarian, in the test with SF-295 CNS, with HCT-15 colon, in the test with SK-MEL-5 melanoma and with HT29 colon was more than 100 µM throughout. The compound further gave a TGI in the test with MOLT-4 leukemia of more than 100 µM.

(Values after PubChem BioAssay (NCI).)
